According to a melting point compilation (Tetko et al.; mined from patent text by program, amines drawn as free bases though some values may be those of a salt):

SMILES | melting point [°C]
O=S1(=O)NCN(CCF)c2ccc(I)cc21 | 156 to 158
CCOc1ccc(-c2c(C)c3cc(O)ccc3n2Cc2ccc(OCCN3CCCCCC3)cc2)cc1 | 133 to 135
CSC1NC(=O)N(c2ccc(Cl)c(Cl)c2)C(=O)N1N=C(C)C (stereo not given) | 181 to 182
CON1CCC2(CC1)NC(=O)C(F)(c1cc(C)ccc1C)C2=O (stereo not given) | 127 to 130
COc1cc2c(c3c1OC(C)(C)C3)C(c1ccn(Cc3ccc(C(=O)NCCO)cc3)c(=O)c1)=NC(C)(C)C2 | 220 to 222
CC1(COc2ccc(Cc3nnn[nH]3)cc2)CCCCC1=NO (stereo not given) | 153 to 156
CN1C2CCC1C(CO)C(c1ccc(I)cc1)C2 (stereo not given) | 90 to 92
CC1=CC(C)(C)OC(c2nsc3ccc(-n4c(=O)cc(C(F)(F)F)n(C)c4=O)cc23)C1 (stereo not given) | 88 to 92
CCOC(=O)NN=C(C)C1(N)C(O)CC2C3CC=C4CC(OC(C)=O)CCC4(C)C3CCC21C (stereo not given) | 287 to 289
O=C(CCCCC1CCSS1)N1CCN(c2ccc([N+](=O)[O-])cc2)CC1 (stereo not given) | 97.6 to 98.5
COC(=O)C(=O)c1ccc(OCCOc2ccnc3ccccc23)cc1 | 135 to 136
COc1ccccc1NC(=O)Nc1nc(Nc2ccccc2-c2ccccc2)nc(N(CCC(=O)O)Cc2cccs2)n1 | 115 to 120
CS(=O)(=O)Nc1ccc(CC(=O)O)cc1 | 145 to 147
CCCCCCCCCC(C)(C)c1cc(C(=O)Nc2ccc(C(=O)O)cc2)ccc1OC | 177
COC(=O)c1nc(-c2ccc(Cl)c(OC)c2F)cc(NC(C)=O)c1O | 168 to 172
C=CCN1CC(C(=O)Nc2cc(C)nc(C)n2)CC2c3cccc4[nH]cc(c34)CC21 (stereo not given) | 182 to 186
CC(=O)N(C)c1cccc(-c2ccc3nncn3n2)c1 | 166 to 169
CCOC(=O)Cc1c(C(=O)OCC)[nH]c2ccc(F)cc12 | 128 to 130
CC1CC(=O)NN=C1c1ccc(N=CNc2ccc(C3=NNC(=O)CC3C)cc2)cc1 (stereo not given) | 306 to 308
O=C1C=c2c(c3[nH]c4c(c3c3c2=CN=C3)CCCC4)C1 | > 300

SMILES | melting point [°C]
Cn1nc(N)nc1NCCCO | 139 to 140
CCc1cc2c(O)cc(=O)oc2cc1OC | 174 to 175
COc1ccc(C(=O)O)c(COc2ccc(CC(=O)O)cc2)c1 | 198 to 200
COc1cc(C(=O)C(C)C)cc([N+](=O)[O-])c1O | 85 to 87
O=c1cc(-c2ccoc2)c2ccc(Sc3cc(F)cc(-c4cccnc4)c3)cc2o1 | 169 to 170
N#Cc1cnc2cnc(F)cc2c1Nc1ccc(Cl)cc1Cl | 206 to 208
COc1ccc(Cl)cc1NC(=O)CN1CCN(CC(=O)N2CC=C(c3cccc(C(F)(F)F)c3)n3ncc(C#N)c32)CC1 | 166 to 168
O=[N+]([O-])c1ccc(Nc2ccccc2)s1 | 186
Cn1cc(-c2nnn[nH]2)c(=O)c2ccccc21 | 306
CCN1CCC(C(=O)O)(S(=O)(=O)c2ccc(OC)cc2)CC1 | 209
CCOC(=O)c1ccc(-c2ccc(OCCCCCCCCCCCCOC(C)=O)cc2)cc1 | 80.1 to 81.5
Fc1cccc(Nc2nc(Cl)nc3nc[nH]c23)c1 | > 250
O=S1(=O)N=C(NC2CCN(Cc3ccccc3)C2)Nc2ccc(Cl)cc21 (stereo not given) | 208 to 210
c1ccc2oc3cnnc-3cc2c1 | 215
CC(C)C[C@@H](COCC(N)=O)NC(=O)OCc1ccccc1 | 78 to 79
Cc1ccc([N+](=O)[O-])c2c1CCCC2=O | 104 to 107
OCCCCc1ccc(OCc2coc(/C=C/c3ccc(F)cc3F)n2)cc1 | 75 to 76
O=C1CCC(c2ccccc2)(c2ccccc2)C2CN(C(Cc3ccccc3)=NCc3ccccn3)CC12 (stereo not given) | 180
O=C(O)CCCCCCc1ccccc1CO | 75 to 77
CC(=O)Nc1cc2c(cc1Oc1ccc(F)cc1F)C(=O)CC2c1ccccc1 (stereo not given) | 163
